The values below come from ChEMBL document CHEMBL5726394, “Therapeutic compounds and compositions” (2019).

For this assay, the target named is Isocitrate dehydrogenase [NADP], mitochondrial (Homo sapiens, UniProt P48735, R140Q). Description: IDH2 Enzymatic Assay: Compounds were assayed for IDH2 R140Q inhibitory activity through a cofactor depletion assay. […] The reaction was terminated by the addition of a second enzyme, diaphorase, and a corresponding substrate, resazurin. Diaphorase reduces resazurin to the highly fluorescent resorufin with the concomitant oxidation of NADPH to NADP, both halting the IDH2 reaction by depleting the available cofactor pool and facilitating quantitation of the amount of cofactor remaining after a specific time period through quantitative production of an easily detected fluorophore.Specifically, into each of 12 wells of a 384-well plate, 1 μl of compound dilution series was placed, followed by the addition of 40 μl of buffer (50 mM potassium phosphate, pH 7.5; 150 mM NaCl; 10 mM MgCl2, 10% glycerol, 0.05% bovine serum albumin, 2 mM beta-mercaptoethanol) containing 1.25 μg/ml IDH2 R140Q. The compound was then incubated for one hour at room temperature with the enzyme; before starting the IDH2 reaction with the addition of 10 μl of substrate mix containing 50 μM NADPH and 6.3 mM α-KG in the buffer described above. After a further one hour of incubation at room temperature, the reaction was halted and the remaining NADPH measured through conversion of resazurin to resorufin by the addition of 25 μl Stop Mix (36 μg/ml diaphorase enzyme and 60 μM resazurin; in buffer). […]. For orientation: Resazurin is reduced to fluorescent resorufin, in cell work by metabolically active cells.

The structures appear in SMILES notation. Some results are limits rather than exact numbers.

Isocitrate dehydrogenase [NADP], mitochondrial, sequence (P48735 40-452 R140Q limits assumed): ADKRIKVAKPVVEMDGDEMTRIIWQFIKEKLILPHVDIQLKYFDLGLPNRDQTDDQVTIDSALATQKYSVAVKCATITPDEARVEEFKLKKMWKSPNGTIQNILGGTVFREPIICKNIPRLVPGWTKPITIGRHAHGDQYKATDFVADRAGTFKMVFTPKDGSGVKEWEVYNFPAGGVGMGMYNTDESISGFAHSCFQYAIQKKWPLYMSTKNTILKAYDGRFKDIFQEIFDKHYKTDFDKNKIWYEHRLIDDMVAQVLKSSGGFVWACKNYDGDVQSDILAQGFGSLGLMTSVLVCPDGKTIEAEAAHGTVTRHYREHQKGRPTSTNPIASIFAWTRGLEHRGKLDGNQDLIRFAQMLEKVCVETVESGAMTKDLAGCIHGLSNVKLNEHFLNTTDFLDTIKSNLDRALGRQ

As for `CCSc1ccc(S(=O)(=O)NCC(F)(F)F)cc1NC(=O)Nc1cccc(C(F)(F)F)c1`, the IC50 is below 100 nM. As for `O=C(Nc1cccc(C(F)(F)F)c1)Nc1cc(S(=O)(=O)Nc2ccccc2)ccc1-c1cccs1`, the figure is 100 to 1000 nM.

As a reminder, the IC50 is the midpoint of a concentration-inhibition curve.
